# Results from US9464064B2, “HCV helicase inhibitors and methods of use thereof” (University of Kansas, priority 2011, dated 2016).
# Like-named read-outs stand apart in the source and are kept apart here.
# Key:
# [1] = tested on: HCV RLuc subgenomic replicon (genotype 1b) in Huh-7.5 cells; assay: HCV subgenomic replicon assay (Renilla luciferase); assay type: cell-based, hepatitis C virus; settings: for inhibition at 10 µM: Hepatitis C virus, Huh7.5, 10 μM, read-out: Replicon (% Inhibition @ 10 μM)
# Method in brief: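 Huh-7.5 cells stably harbouring the genotype 1b HCV RLuc subgenomic replicon were treated with compound at 10 μM final (0.5% DMSO) for 72 h at 37 °C. Replication was assessed as Renilla luciferase activity in lysates relative to DMSO-treated cells.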
# [2] = target: T1, NS3h_2a(JFH1) (Hepatitis C virus genotype 2a, UniProt Q99IB8); assay: MBHA, DNA substrate, genotype 2a helicase; assay type: biochemical, hepatitis C virus genotype 2a(JFH1)
# T1 construct: truncated C-terminally His-tagged NS3 proteins lacking the N-terminal protease, called NS3h; His-tag (C); made in house
# Method in brief: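 Inhibition of DNA unwinding by C-terminally His-tagged recombinant NS3 helicase domain (no protease) from HCV genotype 2a JFH1 strain, measured by molecular beacon-based helicase assay (MBHA).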
# [3] = genotype 2a (JFH1), read-out: Target Potency MBHA (IC50 avg., μM) 2a (JFH1) (converted)
# T1 sequence (Q99IB8 1196-1661): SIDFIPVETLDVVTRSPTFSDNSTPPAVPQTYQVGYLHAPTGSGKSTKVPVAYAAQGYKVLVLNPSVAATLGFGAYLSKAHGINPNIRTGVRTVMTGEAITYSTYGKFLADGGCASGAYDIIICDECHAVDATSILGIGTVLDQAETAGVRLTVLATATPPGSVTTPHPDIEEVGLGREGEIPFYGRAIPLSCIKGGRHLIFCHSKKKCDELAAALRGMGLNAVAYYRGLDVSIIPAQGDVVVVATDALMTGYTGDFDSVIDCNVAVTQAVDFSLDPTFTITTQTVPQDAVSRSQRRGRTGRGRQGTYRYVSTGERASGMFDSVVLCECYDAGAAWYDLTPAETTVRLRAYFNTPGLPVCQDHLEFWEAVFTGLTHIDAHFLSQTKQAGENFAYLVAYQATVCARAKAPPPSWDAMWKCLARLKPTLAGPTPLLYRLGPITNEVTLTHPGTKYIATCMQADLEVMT
SMILES,inhibition at 10 µM [1] [%],"IC50 [2, 3] [µM]",ability to decrease the amount of HCV RNA present in the cultures ([1]; 10 μM),"IC50 ([2]; DNA-based MBHA, genotype 2a(JFH1), read-out: DNA Helicase NS3h_2a IC50 (μM) ± SD) [µM]"
Cc1ccc2nc(-c3ccc4nc(-c5ccc(NC(=O)Nc6ccccc6)cc5)sc4c3)sc2c1S(=O)(=O)O.N [Compound 52],-18 ± 56,6,–,–
Cc1ccc2nc(-c3ccc4nc(-c5ccc(NCc6ccccc6)cc5)sc4c3)sc2c1S(=O)(=O)O [Compound 53],-64 ± 25,13.5,–,–
Cc1ccc2nc(-c3ccc4nc(-c5ccc(NC(=O)Nc6ccc(Cl)cc6)cc5)sc4c3)sc2c1S(=O)(=O)O [Compound 54],35 ± 28,4.4,–,–
COc1ccc(NC(=O)Nc2ccc(-c3nc4ccc(-c5nc6ccc(C)c(S(=O)(=O)O)c6s5)cc4s3)cc2)cc1 [Compound 55],21 ± 10,6.4,–,–
"Cc1ccc2nc(-c3ccc4nc(-c5ccc6nc(-c7ccc8nc(-c9ccc(N)cc9)sc8c7)sc6c5)sc4c3)sc2c1S(=O)(=O)O [Compound P4, 2′″-(4-aminophenyl)-6-methyl-[2,6′:2″,6′″-quaterbenzo[d]thiazole]-7-sulfonic acid]",–,–,showed any ability to decrease the amount of HCV RNA present in the cultures,1 ± 0.3
